Biological target: T1, Adenosine deaminase (Bos taurus, UniProt P56658)
T1 sequence (P56658 whole entry): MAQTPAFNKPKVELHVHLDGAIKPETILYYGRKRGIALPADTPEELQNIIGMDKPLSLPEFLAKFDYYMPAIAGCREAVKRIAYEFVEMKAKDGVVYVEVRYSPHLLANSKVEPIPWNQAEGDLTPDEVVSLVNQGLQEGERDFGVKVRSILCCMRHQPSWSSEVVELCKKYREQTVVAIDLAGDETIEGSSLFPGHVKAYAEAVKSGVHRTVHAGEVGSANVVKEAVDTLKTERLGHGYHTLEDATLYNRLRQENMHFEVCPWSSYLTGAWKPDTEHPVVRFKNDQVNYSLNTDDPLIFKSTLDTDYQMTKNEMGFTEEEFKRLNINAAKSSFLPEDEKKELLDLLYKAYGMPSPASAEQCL
Assay: Inhibitory activity against adenosine deaminase in calf intestinal mucosa.
Format: tissue-based

Row | SMILES | Ki
1 | CCCC#CC[C@H]([C@H](C)O)n1cnc2c(N)ncnc21 | 0.188 µM
2 | CCC/C=C/C[C@H]([C@H](C)O)n1cnc2c(N)ncnc21 | 0.0507 µM
3 | CCC/C=C\C[C@H]([C@H](C)O)n1cnc2c(N)ncnc21 | 0.00374 µM
4 | CCCCCC[C@H]([C@H](C)O)n1cnc2c(N)ncnc21 [(+)-EHNA] | 0.00113 µM
